Measurements as given in patent US4160783A, “4-Dedimethylamino-4-arylsulfonamido-5a,6-anhydrotetracyclines” (PLIVA Pharmaceutical and Chemical Works, priority 1976, dated 1979).

These compounds were tested on Micrococcus flavus ATCC 10240, Sarcina lutea ATCC 9341 and Staph. epidermidis ATCC 12228 (assay: antibacterial activity compared with tetracycline, statement for three organisms). Settings: strongest activity against M. flavus ATCC 10240, Sarcina lutea ATCC 9341, Staph. epidermidis ATCC 12228.
Format: cell-based
With `Cc1ccc(S(=O)(=O)NC2C(O)=C(C(N)=O)C(=O)C3(O)C(=O)c4c(c(C)c5cccc(O)c5c4O)CC23)cc1` (stereo not shown) [Compound 2, 4-p-toluene-sulfonamido-5a,6-anhydrotetracycline] the “activity relative to that of tetracycline” value (from here on “activity relative to that”) was “considerably superior or equal to that of tetracycline”. With `Cc1c2c(c(O)c3c(O)cccc13)C(=O)C1(O)C(=O)C(C(N)=O)=C(O)C(NS(=O)(=O)c3ccc(F)cc3)C1C2` (stereo not shown) [Compound 3, 4-p-fluorbenzenesulfonamido-5a,6-anhydrotetracycline] the “activity relative to that” value was “considerably superior or equal to that of tetracycline”. With `Cc1c2c(c(O)c3c(O)cccc13)C(=O)C1(O)C(=O)C(C(N)=O)=C(O)C(NS(=O)(=O)c3ccc(Br)cc3)C1C2` (stereo not shown) [Compound 4, 4-p-bromobenzenesulfonamido-5a,6-anhydrotetracycline] the “activity relative to that” value was “considerably superior or equal to that of tetracycline”. With `CCc1ccc(S(=O)(=O)NC2C(O)=C(C(N)=O)C(=O)C3(O)C(=O)c4c(c(C)c5cccc(O)c5c4O)CC23)cc1` (stereo not shown) [Compound 6, 4-p-ethylbenzenesulfonamido-5a,6-anhydrotetracycline] the “activity relative to that” value was “considerably superior or equal to that of tetracycline”.
